Measurements: patent US20170204102A1, “AGRICULTURAL AGENT CONTAINING 2,5-DIKETOPIPERAZINE DERIVATIVE AS ACTIVE INGREDIENT” (NAPRO BIOTEC INC., priority 2010, published 2017)

Each molecule was assayed on cucumber leaf (assay: Promotion of growth of cucumber leaf). Details: 1.0 ppm; relative values with respect to the control group (89.9 mm) = 100.0.
Method: Plant leaves were tested with test compounds by drenching. […] 3-5 days later, the width of the leaves was measured again to compare the growth of the leaves relative to the control group.

Row | Molecule | Width of leaf
1 | O=C1C2CCCN2C(=O)C2CCCN12 (stereo not drawn) [Compound No. 31, octahydropyrrolo[1,2-a:1′,2′-d]pyrazin-5,10-dione] | 104.2
2 | 3-(indol-3-ylmethyl)hexahydropyrrolo[1,2-a]pyrazin-1,4-dione [Compound No. 30] | 101.6

Same assay, conditions: 10 ppm; relative values with respect to the control group (89.9 mm) = 100.0

Row | Molecule | Width of leaf
3 | O=C1C2CCCN2C(=O)C2CCCN12 (stereo not drawn) [Compound No. 31, octahydropyrrolo[1,2-a:1′,2′-d]pyrazin-5,10-dione] | 103.2
4 | 3-(indol-3-ylmethyl)hexahydropyrrolo[1,2-a]pyrazin-1,4-dione [Compound No. 30] | 123.5

Same assay, conditions: 100 ppm; relative values with respect to the control group (89.9 mm) = 100.0

Row | Molecule | Width of leaf
5 | O=C1C2CCCN2C(=O)C2CCCN12 (stereo not drawn) [Compound No. 31, octahydropyrrolo[1,2-a:1′,2′-d]pyrazin-5,10-dione] | 102.8
6 | 3-(indol-3-ylmethyl)hexahydropyrrolo[1,2-a]pyrazin-1,4-dione [Compound No. 30] | 119.5

Same assay, conditions: Cucumis sativus, read-out: Width of leaf

Row | Molecule | response vs control in vivo at 1 ppm [%] | response vs control in vivo at 10 ppm [%] | response vs control in vivo at 100 ppm [%]
7 | CC(O)C1NC(=O)C2CCCN2C1=O (stereo not drawn) [Compound No. 33, 3-(1-hydroxyethyl)hexahydropyrrolo[1,2-a]pyrazin-1,4-dione] | 109 | 117 | 110
8 | O=C1NC(CO)C(=O)N2CCCC12 (stereo not drawn) [Compound No. 32, 3-hydroxymethylhexahydropyrrolo[1,2-a]pyrazin-1,4-dione] | 98.7 | 124 | 112
9 | O=C1NC(Cc2ccc(O)cc2)C(=O)N2CCCC12 (stereo not drawn) [Compound No. 23, 3-(4-hydroxybenzyl)hexahydropyrrolo[1,2-a]pyrazin-1,4-dione] | 97.8 | 114 | 110
10 | O=C1NC(Cc2ccccc2)C(=O)N2CCCC12 (stereo not drawn) [Compound No. 24, 3-benzylhexahydropyrrolo[1,2-a]pyrazin-1,4-dione] | 98.2 | 104 | 102
11 | CC(C)CC1NC(=O)C2CCCN2C1=O (stereo not drawn) [Compound No. 27, 3-(2-methylpropyl)hexahydropyrrolo[1,2-a]pyrazin-1,4-dione] | 111 | 135 | 129

What follows are molecules tested on Colletotrichum orbiculare (assay: not given). Details: 0.1 ppm; cucumber; control 12.5.
Format: in vivo

Row | Molecule | Number of anthractic lesions in first leaf
12 | 3-(indol-3-ylmethyl)hexahydropyrrolo[1,2-a]pyrazin-1,4-dione [Compound No. 30] | 2.5

Same assay, conditions: 0.1 ppm; cucumber; control 96.8

Row | Molecule | Number of anthractic lesions in second leaf
13 | 3-(indol-3-ylmethyl)hexahydropyrrolo[1,2-a]pyrazin-1,4-dione [Compound No. 30] | 66.8

Same assay, conditions: 1 ppm; cucumber; control 12.5

Row | Molecule | Number of anthractic lesions in first leaf
14 | 3-(indol-3-ylmethyl)hexahydropyrrolo[1,2-a]pyrazin-1,4-dione [Compound No. 30] | 3.0

Same assay, conditions: 1 ppm; cucumber; control 96.8

Row | Molecule | Number of anthractic lesions in second leaf
15 | 3-(indol-3-ylmethyl)hexahydropyrrolo[1,2-a]pyrazin-1,4-dione [Compound No. 30] | 39.0

Same assay, conditions: 10 ppm; cucumber; control 12.5

Row | Molecule | Number of anthractic lesions in first leaf
16 | 3-(indol-3-ylmethyl)hexahydropyrrolo[1,2-a]pyrazin-1,4-dione [Compound No. 30] | 7.0

Same assay, conditions: 10 ppm; cucumber; control 96.8

Row | Molecule | Number of anthractic lesions in second leaf
17 | 3-(indol-3-ylmethyl)hexahydropyrrolo[1,2-a]pyrazin-1,4-dione [Compound No. 30] | 35.3

Same assay, conditions: 100 ppm; cucumber; control 12.5

Row | Molecule | Number of anthractic lesions in first leaf
18 | 3-(indol-3-ylmethyl)hexahydropyrrolo[1,2-a]pyrazin-1,4-dione [Compound No. 30] | 7.8

Same assay, conditions: 100 ppm; cucumber; control 96.8

Row | Molecule | Number of anthractic lesions in second leaf
19 | 3-(indol-3-ylmethyl)hexahydropyrrolo[1,2-a]pyrazin-1,4-dione [Compound No. 30] | 55.3

Each molecule was assayed on Colletotrichum acutatum (assay: Inhibition of anthracnose in red pepper fruit after soil drench). Details: 1 ppm, control 50.

Row | Molecule | Appearance of anthracnose [%]
20 | O=C1C2CCCN2C(=O)C2CCCN12 (stereo not drawn) [Compound No. 31, octahydropyrrolo[1,2-a:1′,2′-d]pyrazin-5,10-dione] | 25
21 | 3-(indol-3-ylmethyl)hexahydropyrrolo[1,2-a]pyrazin-1,4-dione [Compound No. 30] | 0

Same assay, conditions: 10 ppm, control 50

Row | Molecule | Appearance of anthracnose [%]
22 | O=C1C2CCCN2C(=O)C2CCCN12 (stereo not drawn) [Compound No. 31, octahydropyrrolo[1,2-a:1′,2′-d]pyrazin-5,10-dione] | 25
23 | 3-(indol-3-ylmethyl)hexahydropyrrolo[1,2-a]pyrazin-1,4-dione [Compound No. 30] | 0

Same assay, conditions: 100 ppm, control 50

Row | Molecule | Appearance of anthracnose [%]
24 | O=C1C2CCCN2C(=O)C2CCCN12 (stereo not drawn) [Compound No. 31, octahydropyrrolo[1,2-a:1′,2′-d]pyrazin-5,10-dione] | 0
25 | 3-(indol-3-ylmethyl)hexahydropyrrolo[1,2-a]pyrazin-1,4-dione [Compound No. 30] | 0

Same assay, conditions: Table 10, FIG. 9

Row | Molecule | Appearance of anthracnose / anthractic lesion (in words)
26 | 3-(indol-3-ylmethyl)hexahydropyrrolo[1,2-a]pyrazin-1,4-dione [Compound No. 30] | hardly observed

What follows are molecules tested on Pectobacterium carotovorum SCC1 (assay: Inhibition of soft rot lesion in cucumber leaf). Details: 1 ppm, Table 6, control 100.
Format: in vivo

Row | Molecule | Area of lesion [%]
27 | CC(C)CC1NC(=O)C(C(C)O)NC1=O (stereo not drawn) [Compound No. 3, 3-(1-hydroxyethyl)-6-(2-methylpropyl)-2,5-diketopiperazine] | 45
28 | CC(C)CC1NC(=O)C(CO)NC1=O (stereo not drawn) [Compound No. 1, 3-hydroxymethyl-6-(2-methylpropyl)-2,5-diketopiperazine] | 95
29 | CC(C)C1NC(=O)CNC1=O (stereo not drawn) [Compound No. 4, 3-isopropyl-2,5-diketopiperazine] | 37.5

Same assay, conditions: 1 ppm, Table 7, control 100

Row | Molecule | Area of lesion [%]
30 | O=C1C2CCCN2C(=O)C2CCCN12 (stereo not drawn) [Compound No. 31, octahydropyrrolo[1,2-a:1′,2′-d]pyrazin-5,10-dione] | 95
31 | 3-(indol-3-ylmethyl)hexahydropyrrolo[1,2-a]pyrazin-1,4-dione [Compound No. 30] | 88

Same assay, conditions: 1 ppm, Table 8, control 100

Row | Molecule | Area of lesion [%]
32 | NC(=O)CC[C@H]1NC(=O)[C@@H]2CCCN2C1=O [Compound No. 59] | 30
33 | O=C1N[C@H](Cc2ccccc2)C(=O)N2CCC[C@H]12 [Compound No. 63] | 82.5

Same assay, conditions: 10 ppm, Table 6, control 100

Row | Molecule | Area of lesion [%]
34 | CC(C)CC1NC(=O)C(C(C)O)NC1=O (stereo not drawn) [Compound No. 3, 3-(1-hydroxyethyl)-6-(2-methylpropyl)-2,5-diketopiperazine] | 45
35 | CC(C)CC1NC(=O)C(CO)NC1=O (stereo not drawn) [Compound No. 1, 3-hydroxymethyl-6-(2-methylpropyl)-2,5-diketopiperazine] | 77.5
36 | CC(C)C1NC(=O)CNC1=O (stereo not drawn) [Compound No. 4, 3-isopropyl-2,5-diketopiperazine] | 45

Same assay, conditions: 10 ppm, Table 7, control 100

Row | Molecule | Area of lesion [%]
37 | O=C1C2CCCN2C(=O)C2CCCN12 (stereo not drawn) [Compound No. 31, octahydropyrrolo[1,2-a:1′,2′-d]pyrazin-5,10-dione] | 78
38 | 3-(indol-3-ylmethyl)hexahydropyrrolo[1,2-a]pyrazin-1,4-dione [Compound No. 30] | 75

Same assay, conditions: 10 ppm, Table 8, control 100

Row | Molecule | Area of lesion [%]
39 | NC(=O)CC[C@H]1NC(=O)[C@@H]2CCCN2C1=O [Compound No. 59] | 32.5
40 | O=C1N[C@H](Cc2ccccc2)C(=O)N2CCC[C@H]12 [Compound No. 63] | 42.5

Same assay, conditions: 100 ppm, Table 6, control 100

Row | Molecule | Area of lesion [%]
41 | CC(C)CC1NC(=O)C(C(C)O)NC1=O (stereo not drawn) [Compound No. 3, 3-(1-hydroxyethyl)-6-(2-methylpropyl)-2,5-diketopiperazine] | 42.5
42 | CC(C)CC1NC(=O)C(CO)NC1=O (stereo not drawn) [Compound No. 1, 3-hydroxymethyl-6-(2-methylpropyl)-2,5-diketopiperazine] | 50
43 | CC(C)C1NC(=O)CNC1=O (stereo not drawn) [Compound No. 4, 3-isopropyl-2,5-diketopiperazine] | 87.5

Same assay, conditions: 100 ppm, Table 7, control 100

Row | Molecule | Area of lesion [%]
44 | O=C1C2CCCN2C(=O)C2CCCN12 (stereo not drawn) [Compound No. 31, octahydropyrrolo[1,2-a:1′,2′-d]pyrazin-5,10-dione] | 80
45 | 3-(indol-3-ylmethyl)hexahydropyrrolo[1,2-a]pyrazin-1,4-dione [Compound No. 30] | 70

Same assay, conditions: 100 ppm, Table 8, control 100

Row | Molecule | Area of lesion [%]
46 | NC(=O)CC[C@H]1NC(=O)[C@@H]2CCCN2C1=O [Compound No. 59] | 80
47 | O=C1N[C@H](Cc2ccccc2)C(=O)N2CCC[C@H]12 [Compound No. 63] | 50

What follows are molecules tested on Pectobacterium carotovorum SCC1 (assay: Inhibition of soft rot lesion in tobacco leaf). Details: 1 ppm, Table 3, control 87.5.
Format: in vivo

Row | Molecule | Area of lesion [%]
48 | CC(C)CC1NC(=O)C(C(C)O)NC1=O (stereo not drawn) [Compound No. 3, 3-(1-hydroxyethyl)-6-(2-methylpropyl)-2,5-diketopiperazine] | 20
49 | CC(C)CC1NC(=O)C(CO)NC1=O (stereo not drawn) [Compound No. 1, 3-hydroxymethyl-6-(2-methylpropyl)-2,5-diketopiperazine] | 10
50 | CC(C)C1NC(=O)CNC1=O (stereo not drawn) [Compound No. 4, 3-isopropyl-2,5-diketopiperazine] | 17.5

Same assay, conditions: 1 ppm, Table 4, control 100

Row | Molecule | Area of lesion [%]
51 | O=C1C2CCCN2C(=O)C2CCCN12 (stereo not drawn) [Compound No. 31, octahydropyrrolo[1,2-a:1′,2′-d]pyrazin-5,10-dione] | 47.5
52 | 3-(indol-3-ylmethyl)hexahydropyrrolo[1,2-a]pyrazin-1,4-dione [Compound No. 30] | 2.5

Same assay, conditions: 1 ppm, Table 5, control 73.75

Row | Molecule | Area of lesion [%]
53 | NC(=O)CC[C@H]1NC(=O)[C@@H]2CCCN2C1=O [Compound No. 59] | 12.5
54 | O=C1N[C@H](Cc2ccccc2)C(=O)N2CCC[C@H]12 [Compound No. 63] | 15

Same assay, conditions: 10 ppm, Table 3, control 87.5

Row | Molecule | Area of lesion [%]
55 | CC(C)CC1NC(=O)C(C(C)O)NC1=O (stereo not drawn) [Compound No. 3, 3-(1-hydroxyethyl)-6-(2-methylpropyl)-2,5-diketopiperazine] | 10
56 | CC(C)CC1NC(=O)C(CO)NC1=O (stereo not drawn) [Compound No. 1, 3-hydroxymethyl-6-(2-methylpropyl)-2,5-diketopiperazine] | 32.5
57 | CC(C)C1NC(=O)CNC1=O (stereo not drawn) [Compound No. 4, 3-isopropyl-2,5-diketopiperazine] | 52.5

Same assay, conditions: 10 ppm, Table 4, control 100

Row | Molecule | Area of lesion [%]
58 | O=C1C2CCCN2C(=O)C2CCCN12 (stereo not drawn) [Compound No. 31, octahydropyrrolo[1,2-a:1′,2′-d]pyrazin-5,10-dione] | 60
59 | 3-(indol-3-ylmethyl)hexahydropyrrolo[1,2-a]pyrazin-1,4-dione [Compound No. 30] | 7.5

Same assay, conditions: 10 ppm, Table 5, control 73.75

Row | Molecule | Area of lesion [%]
60 | NC(=O)CC[C@H]1NC(=O)[C@@H]2CCCN2C1=O [Compound No. 59] | 32.5
61 | O=C1N[C@H](Cc2ccccc2)C(=O)N2CCC[C@H]12 [Compound No. 63] | 22.5

Same assay, conditions: 100 ppm, Table 3, control 87.5

Row | Molecule | Area of lesion [%]
62 | CC(C)CC1NC(=O)C(C(C)O)NC1=O (stereo not drawn) [Compound No. 3, 3-(1-hydroxyethyl)-6-(2-methylpropyl)-2,5-diketopiperazine] | 0
63 | CC(C)CC1NC(=O)C(CO)NC1=O (stereo not drawn) [Compound No. 1, 3-hydroxymethyl-6-(2-methylpropyl)-2,5-diketopiperazine] | 50
64 | CC(C)C1NC(=O)CNC1=O (stereo not drawn) [Compound No. 4, 3-isopropyl-2,5-diketopiperazine] | 52.5

Same assay, conditions: 100 ppm, Table 4, control 100

Row | Molecule | Area of lesion [%]
65 | O=C1C2CCCN2C(=O)C2CCCN12 (stereo not drawn) [Compound No. 31, octahydropyrrolo[1,2-a:1′,2′-d]pyrazin-5,10-dione] | 17.5
66 | 3-(indol-3-ylmethyl)hexahydropyrrolo[1,2-a]pyrazin-1,4-dione [Compound No. 30] | 2.5

Same assay, conditions: 100 ppm, Table 5, control 73.75

Row | Molecule | Area of lesion [%]
67 | NC(=O)CC[C@H]1NC(=O)[C@@H]2CCCN2C1=O [Compound No. 59] | 47.5
68 | O=C1N[C@H](Cc2ccccc2)C(=O)N2CCC[C@H]12 [Compound No. 63] | 65
